# Read-outs that look alike come from different tables or passages of the source.
# Experiments:
# [1] = system: sub-genomic HCV replicon of genotype 1a; experiment: ELISA (NS5A protein level) in sub-genomic replicon 1a cell line W11.8; assay type: cell-based; settings: for IC50: W11.8, Table 4; for IC99 (nM) (1a): Table 4
# Excerpt: Activity Determination Using the ELISA and the Sub-Genomic Replicon 1a Cell Line
# The cell line W11.8 containing the sub-genomic HCV replicon of genotype 1a is used to determine the potency of the drugs. The RNA replication in presence of different drug concentrations is indirectly measured in this cell line by the level of NS5A protein content upon drug treatment for four days. It is shown that the level of the NS5A protein correlates well with the level of HCV RNA in the replicon cell line. Cells are split twice a week in order to keep the confluence state below 85% of the culture flask surface area. The culture media used for cell passaging consists of DMEM-10% foetal bovine serum with 100 UI/mL penicillin, 100 μg/mL streptomycin, 2 mM glutamine, 1 mM sodium pyruvate, non-essential amino acids (1×) and 600 μg/mL of G418 final concentrations. Monolayer of the W11.8 cells is trypsinized and cells are counted. Cells are diluted at 50,000 cells/mL with complete DMEM without G418, then approximately 5,000 viable cells (100 μL) are plated per well in a white opaque 96-well microtiter plate. After an incubation period of 2-4 hours at 37° C. in a 5% CO2 incubator, compounds are added at various concentrations. Drugs are resuspended in DMSO at a stock concentration of 10 mM. Then, drugs are serially diluted at twice the final concentration in the same medium. One volume (100 μL) of each drug dilution is then added to each well that contains cells. A control compound is used as an internal standard for each plate assay. Sixteen wells are used as control (0% inhibition) without drug. […] Values from 100% inhibited wells were averaged and used as the background value. Cells are further incubated for four days at 37° C. in a 5% CO2 incubator. Following the incubation time of four days, the media is removed and wells are washed once with 150 μL of PBS at room temperature for five minutes. Cells are then fixed for five minutes using 150 μL per well of cold (−20° C.) fixative solution (50% methanol/50% acetone mix). Cells are then washed twice with 150 μL of PBS (phosphate buffered saline) per well, following the addition of 150 μL of blocking solution, cells are incubated for one hour at 37° C. to block non-specific sites. The blocking solution is removed and cells are washed twice with 150 μL of PBS per well and once with 150 μL of PBSTS solution (PBS/0.1% Triton X-100/0.02% SDS) per well. Then, 50 μL of mouse monoclonal anti-NS5A antibody (Santa Cruz, Cat. No. sc-52417) is added in each well, diluted 1/1,000 in the blocking solution and incubated at 4° C. overnight. Next day, media is removed and plates are washed five times with 150 μL of PBS per well with five-minute incubations at room temperature. Then 50 μL per well of peroxidase-conjugated donkey anti-mouse antibody (Jackson Immunoresearch, Cat. No. 715-036-150) diluted 1/10,000 in the blocking solution is added and incubated at room temperature for three hours on a shaker (500 rpm). Plates are washed four times with 150 μL of PBSTS solution per well and once with 150 μL of PBS. Then, substrate solution (100 μl, SuperSignal ELISA Pico Chemiluminescent Substrate, Fisher Cat. No. 37069) is added in each well and plates are incubated 60 minutes at room temperature prior to reading the luminescence (relative light units) on the Analyst HT plate reader. The percentage of inhibition at each drug concentration tested (in duplicate) is calculated.
# [2] = system: HCV (1b) RNA replication (replicon I389Luc-ubi-neo/NS3-3′/5.1); experiment: Cell-based luciferase reporter HCV (1b) RNA replication assay, Huh-ET cells; settings: Table 4, sub-genomic replicon 1b cell line; for IC50: Hepatitis C virus
# Excerpt: Cell-Based Luciferase Reporter HCV (Ib) RNA Replication Assay Cell Culture
# Replicon cell lines Huh-5.2 are derived from the Huh-7 hepatocarcinoma cell line are maintained in culture as generally described in Krieger, N; Lohmann, V; Bartenschlager, R. Enhancement of hepatitis C virus RNA replication by cell culture-adaptive mutations. J. Virol. 2001, 75, 4614-4624. The Huh-5.2 cells contain the highly cell culture-adapted replicon I389Luc-ubi-neo/NS3-3′/5.1 construct that carries, in addition to the neomycin gene, an integrated copy to the firefly luciferase gene (Krieger, N; Lohmann, V; Bartenschlager, R. Enhancement of hepatitis C virus RNA replication by cell culture-adaptive mutations. J. Virol. 2001, 75, 4614-4624). This cell line allows measurement of HCV RNA replication and translation by measuring luciferase activity. It has been previously shown that the luciferase activity tightly follows the replicon RNA level in these cells (Krieger, N; Lohmann, V; Bartenschlager, R. Enhancement of hepatitis C virus RNA replication by cell culture-adaptive mutations. J. Virol. 2001, 75, 4614-4624). The Huh-ET cell line has the same features as those mentioned for Huh-5.2 cell line, except that ET cells are more robust and contain an adaptative mutation in the HCV NS4B gene instead of NSSA. Both cell lines are maintained in cultures at a sub-confluent level (<85%) as the level of replicon RNA is highest in actively proliferating cells. The culture media used for cell passaging consist of DMEM (Gibco BRL Laboratories, Mississauga, ON, Canada) supplemented with 10% foetal bovine serum with 1% penicilin/streptomycin, 1% glutamine, 1% sodium pyruvate, 1% non-essential amino acids, and 180 μg/ml of G418 final concentration. Cells are incubated at 37° C., in an atmosphere of 5% CO2 and passaged twice a week to maintain sub-confluence.
# Approximately 3000 viable Huh-ET cells (100 μl) are plated per well in a white opaque 96-well microtiter plate. The cell culture media used for the assay is the same as described above except that it contains no G418 and no phenol red. After an incubation period of 3-4 hours at 37° C. in a 5% CO2 incubator, compounds (100 μl) are added at various concentrations. Cells are then further incubated for 4 days at 37° C. in a 5% CO2 incubator. Thereafter, the culture media is removed and cells are lysed by the addition of 95 μL of the luciferase buffer (luciferin substrate in buffered detergent). Cell lysates are incubated at room temperature and protected from direct light for at least 10 minutes. Plates are read for luciferase counts using a luminometer (Wallac MicroBeta Trilux, Perkin Elmer™, MA, USA).
# Curves are fitted to data points using nonlinear regression analysis, and IC50s are interpolated from the resulting curve using GraphPad Prism software, version 2.0 (GraphPad Software Inc., San Diego, Calif., USA).
# [3] = Hepatitis C virus, W11.8, read-out: EC50 (μM) (1a), Table 3
SMILES,"EC50 [1, 3] [µM]","EC50 ([1]; read-out: EC50 (μM) (1a), Table 3) [µM]",IC50 ([1]; Hepatitis C virus) [nM],IC99 (nM) (1a) [1],IC50 [2] [nM],IC99 (nM) (1b) [2]
COC(=O)N[C@H](C(=O)N1CCC[C@H]1c1nc2sc(C#CC#Cc3cc4[nH]c([C@@H]5CCCN5C(=O)[C@@H](NC(=O)OC)C(C)C)nc4s3)cc2[nH]1)C(C)C [Compound 3b],0.282,,,,,
COC(=O)N[C@H](C(=O)N1C[C@@H](C)C[C@H]1c1nc2sc(C#CC#Cc3cc4[nH]c([C@@H]5C[C@H](C)CN5C(=O)[C@@H](NC(=O)OC)C(C)C)nc4s3)cc2[nH]1)C(C)C [Compound 4b],0.184,,,,,
COC(=O)N[C@H](C(=O)N1CCCC1c1nc2cc(C#Cc3cc4[nH]c([C@@H]5CCCN5C(=O)[C@@H](NC(=O)OC)C(C)C)nc4s3)ccc2[nH]1)C(C)C (stereo partly shown) [Compound 1b],0.828,,,,,
COC(=O)N[C@H](C(=O)N1C[C@@H](C)C[C@H]1c1nc2cc(C#Cc3cc4[nH]c([C@@H]5C[C@H](C)CN5C(=O)[C@@H](NC(=O)OC)C(C)C)nc4s3)ccc2[nH]1)C(C)C [Compound 2b],0.0403,0.0377,,,,
COC(=O)NC(C(=O)N1C[C@@H](C)C[C@H]1c1nc2sc(-c3ccc(-c4ccc5[nH]c([C@@H]6C[C@H](C)CN6C(=O)[C@@H](NC(=O)OC)C(C)C)nc5c4)cc3)cc2[nH]1)C(C)C (stereo partly shown) [Compound 1c],,,1.65,11.155,0.011,0.207
COC(=O)N[C@H](C(=O)N1C[C@@H](C)C[C@H]1c1nc2sc(-c3ccc(-c4ccc5[nH]c([C@@H]6CC[C@H](C)N6C(=O)[C@@H](NC(=O)OC)C(C)C)nc5c4)cc3)cc2[nH]1)C(C)C [Compound 2c],,,0.619,10.038,0.005,0.303

# — patent publication US20130090364A1, “ANALOGUES FOR THE TREATMENT OR PREVENTION OF FLAVIVIRUS INFECTIONS” (priority 2010, published 2013)
